Molecular target: T1, CPS1 (Homo sapiens, UniProt P31327)
T1 construct: The full length, human CPS1 gene was cloned into pFastBac HTA; His6 (from the pFastBac HTA vector); made in house; host or cells: SF21 insect cells (baculovirus, Bac-to-bac)
T1 sequence (P31327 39-1500): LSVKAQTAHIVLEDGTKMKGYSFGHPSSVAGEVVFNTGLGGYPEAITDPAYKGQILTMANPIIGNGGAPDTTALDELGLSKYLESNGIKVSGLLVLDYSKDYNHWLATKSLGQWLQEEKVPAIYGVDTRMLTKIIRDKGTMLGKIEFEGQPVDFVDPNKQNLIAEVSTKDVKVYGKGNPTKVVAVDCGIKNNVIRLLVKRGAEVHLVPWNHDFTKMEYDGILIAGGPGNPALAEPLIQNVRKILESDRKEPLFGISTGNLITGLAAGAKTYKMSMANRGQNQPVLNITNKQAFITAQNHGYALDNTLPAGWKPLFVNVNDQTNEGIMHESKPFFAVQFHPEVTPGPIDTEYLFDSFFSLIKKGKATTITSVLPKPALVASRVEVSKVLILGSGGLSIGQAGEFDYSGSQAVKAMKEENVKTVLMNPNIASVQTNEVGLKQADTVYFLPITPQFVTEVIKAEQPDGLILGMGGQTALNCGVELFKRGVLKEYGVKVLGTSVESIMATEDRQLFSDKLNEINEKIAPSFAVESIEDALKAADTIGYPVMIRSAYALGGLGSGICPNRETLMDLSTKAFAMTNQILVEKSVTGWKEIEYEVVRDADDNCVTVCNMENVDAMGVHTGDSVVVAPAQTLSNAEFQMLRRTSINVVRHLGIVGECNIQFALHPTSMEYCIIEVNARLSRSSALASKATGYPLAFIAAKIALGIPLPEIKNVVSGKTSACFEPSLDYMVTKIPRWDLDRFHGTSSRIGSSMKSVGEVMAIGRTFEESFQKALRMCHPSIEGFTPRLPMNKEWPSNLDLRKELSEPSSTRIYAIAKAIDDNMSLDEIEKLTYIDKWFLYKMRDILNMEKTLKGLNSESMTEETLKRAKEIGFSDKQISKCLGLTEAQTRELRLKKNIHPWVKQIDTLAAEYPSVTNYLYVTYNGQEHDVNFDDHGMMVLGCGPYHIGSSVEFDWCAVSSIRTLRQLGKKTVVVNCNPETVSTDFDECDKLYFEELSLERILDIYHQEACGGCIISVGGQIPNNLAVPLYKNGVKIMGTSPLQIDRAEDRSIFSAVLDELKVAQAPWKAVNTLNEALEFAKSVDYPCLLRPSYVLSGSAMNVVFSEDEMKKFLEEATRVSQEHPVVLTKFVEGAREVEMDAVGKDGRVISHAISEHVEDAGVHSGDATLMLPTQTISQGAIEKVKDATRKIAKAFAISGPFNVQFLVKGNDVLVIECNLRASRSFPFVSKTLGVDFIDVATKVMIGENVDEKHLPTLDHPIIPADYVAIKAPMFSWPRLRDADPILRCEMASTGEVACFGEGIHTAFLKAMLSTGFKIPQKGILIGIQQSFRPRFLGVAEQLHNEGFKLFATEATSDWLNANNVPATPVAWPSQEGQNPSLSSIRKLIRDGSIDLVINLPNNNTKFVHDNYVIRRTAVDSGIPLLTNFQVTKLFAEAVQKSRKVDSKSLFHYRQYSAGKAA
Test: ADP-Glo endpoint assay measuring the ATPase activity of CPS1
Format: biochemical
Settings: geometric mean of a minimum of two values; 50 nM CPS1, 10 μM ATP, 0.2 mM NAG, 60 min at room temperature; read-out: ADPGlo IC50
Method: CPS1 was expressed and purified from SF21 insect cells. The full length, human CPS1 gene was cloned into pFastBac HTA and baculovirus was generated using the Bac-to-bac expression system from Invitrogen. P3 virus was used to infect SF21 insect cells at a density of 1.5E6 cells/mL at an MOI of 2. Cells were harvested by centrifugation after 60 hrs and the cell pellet resuspended in lysis buffer (50 mM glycyl glycine pH 7.4, 20 mM KCl, 1 mM TCEP, 10% glycerol and 20 mM imidazole with Roche protease inhibitor tablet) before being lysed with 40 strokes of a Dounce homogenizer on ice. The insoluble fraction of the lysate was then cleared by centrifugation at 30,000 rpm for 30 min. 40 mL of supernatant was mixed with 2 mL of Ni NTA beads for 45 min at 4° C. in a 50 mL conical tube.
The beads were washed with 40 mL of wash buffer (50 mM glycyl glycine pH 7.4, 500 mM NaCl, 1 mM TCEP, 10% glycerol and 50 mM imidazole) by centrifugation and resuspension of the beads three times. Bound CPS1 protein was eluted in 6 mL of elution buffer (50 mM glycyl glycine pH 7.4, 500 mM NaCl, 1 mM TCEP, 10% glycerol and 250 mM imidazole) three times. Elution fractions were combined and concentrated using an Amicon Ultra centrifugation filter with a 10,000 molecular weight cut off. Imidazole was removed by repeated concentration and resuspension in storage buffer in the filter device (50 mM glycyl glycine pH 7.4, 500 mM NaCl, 1 mM TCEP and 20% glycerol). CPS1 was concentrated to a final concentration of ˜3 mg/mL before being aliquoted, flash frozen in liquid nitrogen and stored at −80° C.
CPS1 activity was measured and compounds profiled in an endpoint assay measuring the ATPase activity of CPS1 using the ADP-Glo kit from Promega. 50 nM CPS1 was incubated alone or with varying amounts of tested compound from DMSO stocks in assay buffer (50 mM HEPES pH 7.0, 12.5 mM KHCO3, 1.5 mM (NH4)2SO3, 5 mM MgCl2, 50 mM KCl, 1 mM TCEP, 0.01% TritonX 100, 0.0025% BSA and 0.2 mM NAG) for 20 min in a 3 μL volume in a 384-well plate (Corning Cat#3820). The final concentration of DMSO was 0.04%. The reaction was initiated by the addition of 10 μM ATP, bringing the final volume to 6 μL. After 60 min at room temperature, the reaction was terminated with 3 μL ADP-Glo reagent and incubated at room temperature for 30 min. 3 μL of kinase detection reagent was then added and luminescent signal measured on an Envision plate reader after 30 min.

Row | IC50 | Compound
1 | 672 nM | COc1ccc(C(=O)N2[C@H](C)CN(C(=O)c3ccc(OC(F)(F)F)cc3F)C[C@H]2C)c(F)c1 [Compound 1, ((2R,6R)-4-(2-Fluoro-4-(trifluoromethoxy)benzoyl)-2,6-dimethylpiperazin-1-yl)(2-fluoro-4-methoxyphenyl)methanone]
2 | 427 nM | COc1ccc(C(=O)N2[C@H](C)CN(C(=O)c3ccc(OC)c(F)c3F)C[C@H]2C)c(F)c1 [Compound 2, ((2R,6R)-4-(2,3-Difluoro-4-methoxybenzoyl)-2,6-dimethylpiperazin-1-yl)(2-fluoro-4-methoxyphenyl)methanone]
3 | 127 nM | COc1ccc(C(=O)N2[C@H](C)CN(C(=O)c3ccc4cc[nH]c4c3)C[C@H]2C)c(F)c1 [Compound 3, ((2R,6R)-4-(1H-Indole-6-carbonyl)-2,6-dimethylpiperazin-1-yl)(2-fluoro-4-methoxyphenyl)methanone]
4 | 545 nM | COc1ccc(C(=O)N2[C@H](C)CN(C(=O)c3ccc(OC)c(F)c3)C[C@H]2C)c(F)c1 [Compound 4, ((2R,6R)-4-(3-Fluoro-4-methoxybenzoyl)-2,6-dimethylpiperazin-1-yl)(2-fluoro-4-methoxyphenyl)methanone]
5 | 139 nM | CCOc1ccc(C(=O)N2C[C@@H](C)N(C(=O)c3ccc(OC)cc3F)[C@H](C)C2)c(F)c1 [Compound 5, ((2R,6R)-4-(4-Ethoxy-2-fluorobenzoyl)-2,6-dimethylpiperazin-1-yl)(2-fluoro-4-methoxyphenyl)methanone]
6 | 7670 nM | COc1ccc(C(=O)N2[C@H](C)CN(C(=O)c3ccc4c(c3)N(C)CC4)C[C@H]2C)c(F)c1 [Compound 6, ((2R,6R)-2,6-Dimethyl-4-(1-methylindoline-6-carbonyl)piperazin-1-yl)(2-fluoro-4-methoxyphenyl)methanone]
7 | 171 nM | COc1ccc(C(=O)N2[C@H](C)CN(C(=O)c3ccc4cc(C)[nH]c4c3)C[C@H]2C)c(F)c1 [Compound 7, ((2R,6R)-2,6-Dimethyl-4-(2-methyl-1H-indole-6-carbonyl)piperazin-1-yl)(2-fluoro-4-methoxyphenyl)methanone]
8 | 2780 nM | COc1ccc(C(=O)N2[C@H](C)CN(C(=O)c3ccc(NC(C)=O)cc3F)C[C@H]2C)c(F)c1 [Compound 8, N-(3-Fluoro-4-((3R,5R)-4-(2-fluoro-4-methoxybenzoyl)-3,5-dimethylpiperazine-1-carbonyl)phenyl)acetamide]
9 | 190 nM | COc1ccc(C(=O)N2[C@H](C)CN(C(=O)c3ccc(OC(F)F)cc3F)C[C@H]2C)c(F)c1 [Compound 9, ((2R,6R)-4-(4-(Difluoromethoxy)-2-fluorobenzoyl)-2,6-dimethylpiperazin-1-yl)(2-fluoro-4-methoxyphenyl)methanone]
10 | 710 nM | COc1ccc(C(=O)N2[C@H](C)CN(C(=O)c3cc(F)c(OC)cc3F)C[C@H]2C)c(F)c1 [Compound 10, ((2R,6R)-4-(2,5-Difluoro-4-methoxybenzoyl)-2,6-dimethylpiperazin-1-yl)(2-fluoro-4-methoxyphenyl)methanone]
11 | 2810 nM | COc1ccc(C(=O)N2[C@H](C)CN(C(=O)c3ccc(OC)cc3Cl)C[C@H]2C)c(F)c1 [Compound 11, ((2R,6R)-4-(2-Chloro-4-methoxybenzoyl)-2,6-dimethylpiperazin-1-yl)(2-fluoro-4-methoxyphenyl)methanone]
12 | 2590 nM | COc1ccc(C(=O)N2[C@H](C)CN(C(=O)c3ccc(F)cc3F)C[C@H]2C)c(F)c1 [Compound 12, ((2R,6R)-4-(2,4-Difluorobenzoyl)-2,6-dimethylpiperazin-1-yl)(2-fluoro-4-methoxyphenyl)methanone]
13 | 711 nM | COc1ccc(C(=O)N2[C@H](C)CN(C(=O)c3ccc4c[nH]nc4c3)C[C@H]2C)c(F)c1 [Compound 13, ((2R,6R)-4-(2H-Indazole-6-carbonyl)-2,6-dimethylpiperazin-1-yl)(2-fluoro-4-methoxyphenyl)methanone]
14 | 2200 nM | COc1ccc(C(=O)N2[C@H](C)CN(C(=O)c3ccc(C)cc3F)C[C@H]2C)c(F)c1 [Compound 14, ((3R,5R)-4-(2-Fluoro-4-methoxybenzoyl)-3,5-dimethylpiperazin-1-yl)(2-fluoro-4-methylphenyl)methanone]
15 | 420 nM | COc1ccc(C(=O)N2[C@H](C)CN(C(=O)c3c(F)cc(OC)cc3F)C[C@H]2C)c(F)c1 [Compound 15, ((2R,6R)-4-(2,6-Difluoro-4-methoxybenzoyl)-2,6-dimethylpiperazin-1-yl)(2-fluoro-4-methoxyphenyl)methanone]
16 | 552 nM | COc1ccc(C(=O)N2[C@H](C)CN(C(=O)c3c(F)cc(SC)cc3F)C[C@H]2C)c(F)c1 [Compound 16, ((2R,6R)-4-(2,6-Difluoro-4-(methylthio)benzoyl)-2,6-dimethylpiperazin-1-yl)(2-fluoro-4-methoxyphenyl)methanone]
17 | 526 nM | COc1ccc(C(=O)N2[C@H](C)CN(C(=O)c3cc(Cl)c4cc[nH]c4c3)C[C@H]2C)c(F)c1 [Compound 17, (4-Chloro-1H-indol-6-yl)((3R,5R)-4-(2-fluoro-4-methoxybenzoyl)-3,5-dimethylpiperazin-1-yl)methanone]
18 | 5870 nM | COc1ccc(C(=O)N2[C@H](C)CN(C(=O)c3ccc4c(c3)CCCO4)C[C@H]2C)c(F)c1 [Compound 18, Chroman-6-yl((3R,5R)-4-(2-fluoro-4-methoxybenzoyl)-3,5-dimethylpiperazin-1-yl)methanone]
19 | 3280 nM | COc1ccc(C(=O)N2[C@H](C)CN(C(=O)c3ccc4cc[nH]c4n3)C[C@H]2C)c(F)c1 [Compound 19, ((2R,6R)-2,6-Dimethyl-4-(1H-pyrrolo[2,3-b]pyridine-6-carbonyl)piperazin-1-yl)(2-fluoro-4-methoxyphenyl)methanone]
20 | 3960 nM | COc1ccc(C(=O)N2[C@H](C)CN(C(=O)c3ccc(N(C)C)cc3F)C[C@H]2C)c(F)c1 [Compound 20, ((2R,6R)-4-(4-(Dimethylamino)-2-fluorobenzoyl)-2,6-dimethylpiperazin-1-yl)(2-fluoro-4-methoxyphenyl)methanone]

— patent US20230026271A1, “Piperazine Compounds for Inhibiting CPS1” (Eisai R&D Management Co., Ltd., priority 2019, published 2023)
